Assay [1] has as its target T1, SSCrFCES (LPS-binding domain of C. rotundicauda Factor C, rFCES amino acids 29-330, numbered as in SEQ ID NO: 4) (Carcinoscorpius rotundicauda, UniProt Q26422).
T1 construct: rFCES (amino acids 29-330); made in house; host or cells: Drosophila S2 cells
T1 sequence (Q26422 29-330): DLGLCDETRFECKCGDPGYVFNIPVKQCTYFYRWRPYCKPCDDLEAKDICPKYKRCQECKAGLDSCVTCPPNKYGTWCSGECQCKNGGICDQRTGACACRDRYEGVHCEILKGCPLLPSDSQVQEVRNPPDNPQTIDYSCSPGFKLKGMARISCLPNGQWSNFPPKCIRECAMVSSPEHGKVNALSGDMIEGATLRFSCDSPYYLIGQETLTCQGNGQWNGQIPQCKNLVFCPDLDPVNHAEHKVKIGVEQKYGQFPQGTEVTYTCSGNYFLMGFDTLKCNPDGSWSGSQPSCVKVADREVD
To be noted: rFCES produced in Drosophila cells, 8 ng/μl; reference 77; cited from earlier work.

In assay [2] the target is T2, rFCEE (truncated C. rotundicauda Factor C, CrFC21EE, amino acids 1-766, from P. pastoris) (Carcinoscorpius rotundicauda, UniProt Q26422).
T2 construct: Pichia pastoris, Biomax-50 enriched
T2 sequence (Q26422 1-766): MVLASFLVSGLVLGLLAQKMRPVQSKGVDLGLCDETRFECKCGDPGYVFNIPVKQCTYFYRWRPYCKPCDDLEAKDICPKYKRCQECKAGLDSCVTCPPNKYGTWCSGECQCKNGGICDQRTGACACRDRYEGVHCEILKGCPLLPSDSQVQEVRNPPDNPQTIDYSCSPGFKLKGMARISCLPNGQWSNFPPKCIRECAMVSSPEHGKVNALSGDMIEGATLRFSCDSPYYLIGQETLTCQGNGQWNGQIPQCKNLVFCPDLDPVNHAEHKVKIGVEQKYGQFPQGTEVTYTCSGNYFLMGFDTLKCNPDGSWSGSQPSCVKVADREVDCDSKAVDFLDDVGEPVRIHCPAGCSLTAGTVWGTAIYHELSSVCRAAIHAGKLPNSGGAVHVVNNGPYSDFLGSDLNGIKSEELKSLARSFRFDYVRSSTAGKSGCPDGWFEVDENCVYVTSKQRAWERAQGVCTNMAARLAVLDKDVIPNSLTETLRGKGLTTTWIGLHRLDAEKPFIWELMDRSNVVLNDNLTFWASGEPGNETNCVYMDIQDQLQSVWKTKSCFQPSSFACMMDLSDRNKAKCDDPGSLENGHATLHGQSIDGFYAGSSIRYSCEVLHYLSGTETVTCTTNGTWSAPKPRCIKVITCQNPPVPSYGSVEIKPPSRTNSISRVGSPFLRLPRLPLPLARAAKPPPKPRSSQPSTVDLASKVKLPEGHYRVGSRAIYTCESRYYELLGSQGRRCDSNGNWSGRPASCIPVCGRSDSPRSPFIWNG
The experiment in a line: Modified Western blot of LPS/lipid A. The class given is binding. To be noted: compared with rFC. As to the method: LPS from E. coli 055:B5 (Sigma) was reconstituted to 2 μg/μl, and diphosphoryl lipid A from E. coli K12, D31m4 LPS (List Biologicals, Inc., USA) was made up to 1 μg/μl. The LPS-binding assay was based on modifications of earlier described protocols (45,61). Briefly, 10 μg aliquots of LPS/lipid A were electrophoresed on a denaturing 15% SDS-polyacrylamide gel and electroblotted onto Immobilon™ PVDF membrane. The membrane was cut into strips and each LPS/lipid A strip was subsequently incubated with 300 μg of proteins containing rFC. Detection of rFC binding to lipid A was accomplished by incubation with anti-Factor C antibody followed by alkaline phosphatase-conjugated secondary goat anti-rabbit antibody (Dako) and BCIP/NBT colorimetric substrate (Moss, Inc., USA).

Turning to lipid A, the “saturation of immobilized lipid A” value in assay [1] is 92%. Besides, in assay [2], the “binding to lipid A moiety of LPS” value is “less strongly”.

Source of the values: US7297551B2, “Recombinant proteins and peptides for endotoxin biosensors, endotoxin removal, and anti-microbial and anti-endotoxin therapeutics” (priority 1998, dated 2007).
